IC50 data for twelve compounds are collected here from patent US10626112B2, “Heterocyclic sulfonamide derivative and medicine comprising same” (EA PHARMA CO., LTD., priority 2014, dated 2020).

Chain of human TRPA1 (O75762 whole entry): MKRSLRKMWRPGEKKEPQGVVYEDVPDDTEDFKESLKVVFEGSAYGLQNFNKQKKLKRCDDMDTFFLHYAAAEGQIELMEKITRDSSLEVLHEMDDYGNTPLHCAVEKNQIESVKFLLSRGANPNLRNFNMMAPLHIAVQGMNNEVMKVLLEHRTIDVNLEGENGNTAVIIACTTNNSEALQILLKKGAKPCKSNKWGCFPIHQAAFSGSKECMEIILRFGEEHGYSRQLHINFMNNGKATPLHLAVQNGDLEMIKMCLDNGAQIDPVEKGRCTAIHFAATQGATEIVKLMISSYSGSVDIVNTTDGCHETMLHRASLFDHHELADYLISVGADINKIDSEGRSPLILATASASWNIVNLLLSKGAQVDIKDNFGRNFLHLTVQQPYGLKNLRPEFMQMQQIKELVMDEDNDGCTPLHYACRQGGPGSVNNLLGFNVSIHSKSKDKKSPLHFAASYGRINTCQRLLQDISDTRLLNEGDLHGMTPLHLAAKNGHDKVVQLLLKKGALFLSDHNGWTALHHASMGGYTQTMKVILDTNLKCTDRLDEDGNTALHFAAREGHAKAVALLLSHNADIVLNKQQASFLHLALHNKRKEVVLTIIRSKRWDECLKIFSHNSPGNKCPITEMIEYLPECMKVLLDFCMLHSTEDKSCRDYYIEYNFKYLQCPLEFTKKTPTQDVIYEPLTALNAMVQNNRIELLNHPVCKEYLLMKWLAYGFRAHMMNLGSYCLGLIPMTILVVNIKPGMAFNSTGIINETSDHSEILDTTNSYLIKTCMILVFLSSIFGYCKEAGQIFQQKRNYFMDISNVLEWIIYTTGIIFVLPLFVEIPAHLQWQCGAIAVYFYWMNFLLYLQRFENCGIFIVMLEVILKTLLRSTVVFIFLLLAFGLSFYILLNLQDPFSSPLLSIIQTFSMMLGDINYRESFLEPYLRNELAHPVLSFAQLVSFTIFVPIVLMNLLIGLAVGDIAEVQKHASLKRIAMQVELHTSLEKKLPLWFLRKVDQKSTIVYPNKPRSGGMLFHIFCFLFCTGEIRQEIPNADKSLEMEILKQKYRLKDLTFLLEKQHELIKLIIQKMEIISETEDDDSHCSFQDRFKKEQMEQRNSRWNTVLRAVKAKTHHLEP

The target in this experiment is human TRPA1 (Homo sapiens (Human), UniProt O75762). Put plainly: Measurement of TRPA1 antagonist activity (1): intracellular calcium increase. The class given is cell-based. Particulars: 293T cells transfected with human TRPA1 expression plasmid; allylisothiocyanate 20 μM stimulation; intracellular calcium fluorescence; read-out: hTRPA1 IC50. The method, boiled down:
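HEK293T cells transiently transfected with full-length human TRPA1, loaded with Calcium4 dye in HBSS/20 mM HEPES pH 7.2. Test compound preincubated 10 min, then allylisothiocyanate added at 20 μM final and fluorescence change followed for 5 min. IC50 from sigmoid fit of percent inhibition relative to agonist and buffer controls.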
With `O=C(NCc1cc(-c2ccc(C(F)(F)F)cc2)ccn1)[C@@H]1CCCN1S(=O)(=O)c1cc2cc(F)ccc2o1` [Example 148, (2S)-1-(5-fluorobenzofuran-2-yl)sulfonyl-N-[[4-[4-(trifluoromethyl)phenyl]-2-pyridyl]methyl]pyrrolidine-2-carboxamide], the half-maximal inhibitory concentration (IC50) worked out at 2.2 nM. As for `O=C(NCc1cc(-c2ccc(C(F)(F)F)nc2)ccn1)[C@@H]1CCCN1S(=O)(=O)c1cc2cc(F)ccc2o1` [Example 149, (2S)-1-(5-fluorobenzofuran-2-yl)sulfonyl-N-[[4-[6-(trifluoromethyl)-3-pyridyl]-2-pyridyl]methyl]pyrrolidine-2-carboxamide], the figure is 1.5 nM; as for `N#Cc1ccc(-c2ccnc(CNC(=O)[C@@H]3CCCN3S(=O)(=O)c3cc4cc(F)ccc4o3)c2)cc1` [Example 150, (2S)-N-[[4-(4-cyanophenyl)-2-pyridyl]methyl]-1-(5-fluorobenzofuran-2-yl)sulfonyl-pyrrolidine-2-carboxamide], 13 nM. Then `O=C(NCc1cc(-c2ccc(C(F)(F)F)nc2)ccn1)[C@@H]1CCCN1S(=O)(=O)c1cc2ccccc2o1` [Example 151, (2S)-1-(benzofuran-2-ylsulfonyl)-N-[[4-[6-(trifluoromethyl)-3-pyridyl]-2-pyridyl]methyl]pyrrolidine-2-carboxamide], with 1.9 nM; and `N#Cc1ccc(-c2ccnc(CNC(=O)[C@@H]3CCCN3S(=O)(=O)c3cc4ccccc4o3)c2)nc1` [Example 152, (2S)-1-(benzofuran-2-ylsulfonyl)-N-[[4-(5-cyano-2-pyridyl)-2-pyridyl]methyl]pyrrolidine-2-carboxamide], with 160 nM.

In the case of `O=C(NCc1cc(-c2ccc(OC(F)(F)F)cc2)ccn1)[C@@H]1CCCN1S(=O)(=O)c1cc2ccccc2o1` [Example 153, (2S)-1-(benzofuran-2-ylsulfonyl)-N-[[4-[4-(trifluoromethoxy)phenyl]-2-pyridyl]methyl]pyrrolidine-2-carboxamide], the IC50 was determined as 5.6 nM. As for `Cn1nc(C(F)(F)F)cc1-c1ccnc(CNC(=O)[C@@H]2CCCN2S(=O)(=O)c2cc3ccccc3o2)c1` [Example 154, (2S)-1-(benzofuran-2-ylsulfonyl)-N-[[4-[2-methyl-5-(trifluoromethyl)pyrazol-3-yl]-2-pyridyl]methyl]pyrrolidine-2-carboxamide], the figure is 42 nM. `O=C(NCc1cccc(-c2ccc(F)cc2)c1)[C@@H]1CCCN1S(=O)(=O)c1cc2cc(F)ccc2o1` [Example 155, (2S)-1-(5-fluorobenzofuran-2-yl)sulfonyl-N-[[3-(4-fluorophenyl)phenyl]methyl]-pyrrolidine-2-carboxamide]: the 50% inhibitory concentration (IC50) was 4 nM. As for `O=C(NCc1cccc(-c2ccc(Cl)cc2)c1)[C@@H]1CCCN1S(=O)(=O)c1cc2cc(F)ccc2o1` [Example 156, (2S)-N-[[3-(4-chlorophenyl)phenyl]methyl]-1-(5-fluorobenzofuran-2-yl)sulfonyl-pyrrolidine-2-carboxamide], the IC50 amounted to 2.1 nM.

Take `O=C(NCc1cccc(-c2ccc(C(F)(F)F)cc2)c1)[C@@H]1CCCN1S(=O)(=O)c1cc2cc(F)ccc2o1` [Example 157, (2S)-1-(5-fluorobenzofuran-2-yl)sulfonyl-N-[[3-[4-(trifluoromethyl)phenyl]-phenyl]methyl]pyrrolidine-2-carboxamide]: the IC50 worked out at 0.48 nM.

Consider `O=C(NCc1cccc(-c2ccc(OC(F)(F)F)cc2)c1)[C@@H]1CCCN1S(=O)(=O)c1cc2cc(F)ccc2o1` [Example 158, (2S)-1-(5-fluorobenzofuran-2-yl)sulfonyl-N-[[3-[4-(trifluoromethoxy)phenyl]-phenyl]methyl]pyrrolidine-2-carboxamide], for which the IC50 is 0.83 nM. As for `CN(C)c1ccc(-c2cccc(CNC(=O)[C@@H]3CCCN3S(=O)(=O)c3cc4cc(F)ccc4o3)c2)cn1` [Example 159, (2S)-N-[[3-[6-(dimethylamino)-3-pyridyl]phenyl]methyl]-1-(5-fluorobenzofuran-2-yl)sulfonyl-pyrrolidine-2-carboxamide], the figure is 6.2 nM.

In general, IC50 refers to the concentration that inhibits the measured activity by half.
